In patent US10035801B2, “Pyrazolo compounds and uses thereof” (CONSTELLATION PHARMACEUTICALS, INC., priority 2013, dated 2018) one finds IC50 data, which are given here for 37 compounds.

Some results are limits rather than exact numbers.

The target in the experiment is T1, GASC1 (Homo sapiens, UniProt Q9H3R0).
T1 construct: 6×His tagged recombinant GASC1 (N 350aa) was purified from E. Coli BL21(DE3); 6xHis; made in house; host or cells: E. coli BL21(DE3)
T1 sequence (Q9H3R0 1-350 limits assumed): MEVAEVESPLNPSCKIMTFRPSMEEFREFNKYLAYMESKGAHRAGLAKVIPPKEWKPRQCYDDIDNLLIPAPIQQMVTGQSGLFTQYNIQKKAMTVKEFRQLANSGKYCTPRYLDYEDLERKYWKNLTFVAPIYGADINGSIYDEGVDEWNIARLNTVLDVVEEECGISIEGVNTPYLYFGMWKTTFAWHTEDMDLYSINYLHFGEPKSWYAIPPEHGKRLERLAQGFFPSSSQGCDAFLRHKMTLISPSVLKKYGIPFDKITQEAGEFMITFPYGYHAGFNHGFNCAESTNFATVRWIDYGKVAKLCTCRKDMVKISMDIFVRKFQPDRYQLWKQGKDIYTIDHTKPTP
The experiment in a line: GASC1 demethylation assay on H3K9Me3 peptide (RapidFire HT-MS). It counts as biochemical. Conditions: read-out: GASC1 Inhibition. Here is the method:
6×His tagged recombinant GASC1 (N 350aa) was purified from E. Coli BL21(DE3) to near homogeneity. The demethylation reaction buffer contained 50 mM TrisCl pH 7.5, 0.01% Triton X-100, 5% glycerol, 1 mM ascorbate (Cat# A4034, Sigma Aldrich), 5 μM α-ketoglutarate (# K2010, Sigma Aldrich) and 20 μM Fe2(NH4)2(SO4)2 (Cat# F1543, Sigma Aldrich). In 25 μL demethylation reaction system, 400 nM recombinant GASC1 and 20 μM H3K9me3 peptide (1-21 aa) were incubated with compounds for 10 minutes, and then α-ketoglutarate and Fe2(NH4)2(SO4)2 were added to initiate the reaction. All of the reactions were incubated for 45 minutes at room temperature, and then 25 μl of 1 N HCl was added to quench the reactions. After termination, plates were sealed and frozen at −80° C. and shipped on dry ice to BioTrove Inc. (Woburn, Mass.) for analysis.
All the reactions were read by RapidFire™ HT-MS platform developed in BioTrove Inc, and the method has been described in detail previously (Assay and Drug Development Technologies, 2004; 2(4): 373-381). Briefly, at BioTrove, plates were thawed and immediately analyzed using RapidFire™ system coupled to a Sciex API4000 triple quadrapole mass spectrometer. The samples were delivered directly from the plate to a clean-up cartridge (BioTrove column A) to remove nonvolatile assay components with 0.1% formic acid in a 3-sec wash cycle. The peptide substrate and demethylated product were coeluted to the mass spectrometer with 80% acetonitrile, 0.1% formic acid. Both the substrate and product signals were read at their +5 charge species, and the conversion from substrate to product is assessed by [H3K9me2 Read]/[H3K9me2 Read+H3K9me3 Read].

As to `CCOC(=O)Cc1c(C)[nH]c2c(C#N)c(C)nn2c1=O` [Compound I-1], the IC50 is not below 50 µM. For the compound `CCOC(=O)Cc1c(C)[nH]c2c(C#N)cnn2c1=O` [Compound I-2], the IC50 is not below 50 µM. Consider `N#Cc1cnn2c(=O)c3c([nH]c12)CCC3` [Compound I-3], for which the IC50 was 1 to 10 µM. Take `CCc1c(C)[nH]c2c(C#N)c(C)nn2c1=O` [Compound I-5]: the IC50 was 1 to 10 µM. For `Cc1[nH]c2c(C#N)cnn2c(=O)c1Cc1ccccc1` [Compound I-6], the IC50 was not below 50 µM. With `Cc1nn2c(=O)c3c([nH]c2c1C#N)CCCC3` [Compound I-12], the IC50 fell in the range of 10 to 50 µM. As for `CCc1nn2c(=O)c3c([nH]c2c1C#N)CCCC3` [Compound I-13], the IC50 was not below 50 µM.

Consider `Cn1c2c(c(=O)n3ncc(C#N)c13)CCCC2` [Compound I-14], for which the IC50 is not below 50 µM.

As for `Cc1nn2c(=O)c(C(C)C)c(C)[nH]c2c1C#N` [Compound I-15], the IC50 fell in the range of 1 to 10 µM.

As to `CCCc1c(C)[nH]c2c(C#N)c(C)nn2c1=O` [Compound I-16], the IC50 was 1 to 10 µM.

Take `CCCc1c(C)[nH]c2c(C#N)cnn2c1=O` [Compound I-17]: the IC50 was not above 1 µM. As for `N#Cc1cnn2c(=O)c3c(n(Cc4ccccc4)c12)CCCC3` [Compound I-18], the IC50 is not below 50 µM. As for `N#Cc1cnn2c(=O)c3c(n(-c4ccccc4)c12)CCCC3` [Compound I-19], the IC50 was not below 50 µM.

For `Cc1c(C(C)C)c(=O)n2ncc(C#N)c2n1-c1ccccc1` [Compound I-20], the IC50 was in the range of 1 to 10 µM. For `CCc1c(CO)[nH]c2c(C#N)c(C)nn2c1=O` [Compound I-22] the value was 1 to 10 µM; for `CCc1c(COC)[nH]c2c(C#N)c(C)nn2c1=O` [Compound I-24], 1 to 10 µM.

As to `CCOC(=O)c1[nH]c2c(C#N)c(C)nn2c(=O)c1CC` [Compound I-26], the IC50 was in the range of 1 to 10 µM. For `COCCOc1c2c(nc3c(C#N)cnn13)CCCC2` [Compound I-27], the IC50 is not below 50 µM. `COCCc1c(C)[nH]c2c(C#N)cnn2c1=O` [Compound I-28]: the IC50 was not below 50 µM. `CCCc1c(COC)[nH]c2c(C#N)cnn2c1=O` [Compound I-31]: the IC50 fell in the range of 1 to 10 µM. Consider `CCc1c(CCCOC)[nH]c2c(C#N)cnn2c1=O` [Compound I-32], for which the IC50 fell in the range of 1 to 10 µM. For the compound `CCCc1c(CO)[nH]c2c(C#N)cnn2c1=O` [Compound I-33], the IC50 lay in the range of 1 to 10 µM. Take `C=CCc1c(C)[nH]c2c(C#N)cnn2c1=O` [Compound I-34]: the IC50 was not above 1 µM. Turning to `CCc1c(C(C)O)[nH]c2c(C#N)cnn2c1=O` (stereo not shown) [Compound I-35], the IC50 was 1 to 10 µM.

As to `CCc1c(C)n(CCN(C)C)c2c(C#N)cnn2c1=O` [Compound I-36], the IC50 was not below 50 µM. Turning to `CCc1c2n(c3c(C#N)cnn3c1=O)CCC2` [Compound I-37], the IC50 was not below 50 µM. In the case of `CCc1c(CCCO)[nH]c2c(C#N)cnn2c1=O` [Compound I-38] it was not above 1 µM; in that of `Cc1[nH]c2c(C#N)cnn2c(=O)c1CC(C)C` [Compound I-39], 1 to 10 µM. For `Cc1[nH]c2c(C#N)cnn2c(=O)c1CCO` [Compound I-40], the IC50 is 1 to 10 µM. As to `CCc1c(C(F)(F)F)[nH]c2c(C#N)cnn2c1=O` [Compound I-41], the IC50 was not above 1 µM.

As to `CCc1c(-c2ccoc2)[nH]c2c(C#N)cnn2c1=O` [Compound I-42], the IC50 was not above 1 µM. On to `CCCc1c(C(=O)OCC)[nH]c2c(C#N)cnn2c1=O` [Compound I-43], for which the IC50 fell in the range of 1 to 10 µM.

Consider `CCc1c(Cc2ccccc2)[nH]c2c(C#N)cnn2c1=O` [Compound I-44], for which the IC50 was not above 1 µM. As for `CCOCc1[nH]c2c(C#N)cnn2c(=O)c1CC` [Compound I-45], the IC50 is not above 1 µM. Turning to `C#CCc1c(C)[nH]c2c(C#N)cnn2c1=O` [Compound I-46], the IC50 is not above 1 µM. As for `CCc1c(-c2ccccc2)[nH]c2c(C#N)cnn2c1=O` [Compound I-47], the IC50 was not above 1 µM. `CCNC(=O)c1[nH]c2c(C#N)cnn2c(=O)c1CC` [Compound I-48]: the IC50 lay in the range of 1 to 10 µM.
